In patent US10233192B2, “Derivatives of uncialamycin, methods of synthesis and their use as antitumor agents” (priority 2013, dated 2019):
Like-named read-outs stand apart in the source and are kept apart here.

Key:
OVCAR3 cell line = assay: ATP luminescence (CellTiter-Glo) cell viability assay, OVCAR3; assay type: cell-based; conditions: Homo sapiens, read-out: EC50 (nM) OVCAR3
Experimental: (§1) An ATP luminescence assay was used, the procedure being as follows: Cells were seeded at 1×10^3 cells/well in 96-well plates for 3 h for ATP CellTiter^Glo™ assays, respectively. Serial dilutions (1:3) of compounds were added to the wells. Plates were allowed to incubate for 72 h. A CellTiter^Glo™ cell viability kit from Promega was used to measure ATP content of cells treated with compounds following manufacturer's instruction. A decrease in the ATP content is a measure of decrease in cellular viability. The EC50 value—the concentration at which an agent reduces cell viability by 50% of the maximum effect—was determined using PRISM™ software, version 5.0 (GraphPad Software, La Jolla, Calif., USA).
(§2) The compounds were tested against ADR, a multi-drug resistant breast cancer cell line as well as the H226, N87, and OVCAR3 cell lines.

H226 cell line = assay: ATP luminescence (CellTiter-Glo) cell viability assay, H226; assay type: cell-based; conditions: Homo sapiens, read-out: EC50 (nM) H226
Experimental: as §1, §2

[1] = test system: ADR multi-drug resistant breast cancer cell line; assay: ATP luminescence (CellTiter-Glo) cell viability assay, ADR; assay type: cell-based; conditions: 72 h, read-out: EC50 (nM) ADR
Experimental: as §1, §2

N87 cell line = assay: ATP luminescence (CellTiter-Glo) cell viability assay, N87; assay type: cell-based; conditions: 72 h, read-out: EC50 (nM) N87
Experimental: as §1, §2

cancer cells = conditions: antitumor activity, Nicolaou et al. 2007, 2008; cited from earlier work
[2] = Chemical stability observed on preparation and storage; assay type: physicochemical; conditions: observation on handling and storage; both acid- and base-sensitive, slowly decomposed at −78° C
[3] = OVCAR-3, OVCAR3, 72 h, ATP content
[4] = NCI-H226, H226, 72 h, ATP content
[5] = ADR multidrug resistant breast cancer cell line, ATP content

| SMILES | EC50 (OVCAR3 cell line; [3]) | EC50 (H226 cell line; [4]) | EC50 [1, 5] | EC50 (N87 cell line; N87, ATP content) | stability [2] | other results |
| --- | --- | --- | --- | --- | --- | --- |
| COc1cc2c(c(OC)c1CN)C(=O)c1c(O)cc3c(c1C2=O)N[C@H]1C#C/C=C\C#C[C@@H](O)[C@@]32O[C@@]12[C@@H](C)O | 0.4 nM | 0.077 nM | 0.34 nM | 0.15 nM | – | – |
| C[C@@H](O)[C@@]12O[C@]13c1cc(O)c4c(c1N[C@H]2C#C/C=C\C#C[C@H]3O)C(=O)c1ccccc1C4=O [Compound 26a, Uncialamycin] | 4.7 nM | 1.8 nM | 0.39 nM | 1.8 nM | – | IC50 (cancer cells): picomolar; melting point: 175 °C (dec.) |
| C[C@@H](O)[C@@]12O[C@]13c1cc(O)c4c(c1N[C@H]2C#C/C=C\C#C[C@H]3O)C(=O)c1ccc(N)cc1C4=O [Compound 36a, 8-Amino-uncialamycin, reference compound] | 7.4 nM | 2.4 nM | 0.67 nM | 2.7 nM | – | – |
| C[C@@H](O)[C@@]12O[C@]13c1cc(O)c4c(c1N[C@H]2C#C/C=C\C#C[C@H]3O)C(=O)c1ccc(CN)cc1C4=O [Compound 48aa, 8-Aminomethyl-uncialamycin] | 0.32 nM | 0.028 nM | 0.02 nM | 0.011 nM | extremely unstable | – |
| C[C@@H](O)[C@@]12O[C@]13c1cc(O)c4c(c1N[C@H]2C#C/C=C\C#C[C@@H]3O)C(=O)c1ccc(CN)cc1C4=O [Compound 48ab] | 0.28 nM | 0.051 nM | 0.054 nM | 0.023 nM | – | – |
| C[C@@H](O)[C@@]12O[C@]13c1cc(O)c4c(c1N[C@H]2C#C/C=C\C#C[C@H]3O)C(=O)c1cc(CN)ccc1C4=O [Compound 48ba, 7-Aminomethyl-uncialamycin] | 0.066 nM | 0.012 nM | 0.029 nM | 0.01 nM | extremely unstable | – |
| C[C@@H](O)[C@@]12O[C@]13c1cc(O)c4c(c1N[C@H]2C#C/C=C\C#C[C@H]3O)C(=O)c1c(CN)cccc1C4=O [Compound 48ca, 6-Aminomethyl-uncialamycin] | – | – | – | – | extremely unstable | – |
| C[C@@H](O)[C@@]12O[C@]13c1cc(O)c4c(c1N[C@H]2C#C/C=C\C#C[C@H]3O)C(=O)c1cccc(CN)c1C4=O [Compound 48da, 9-Aminomethyl-uncialamycin] | – | – | – | – | extremely unstable | – |
| C[C@@H](O)[C@@]12O[C@]13c1cc(O)c4c(c1N[C@H]2C#C/C=C\C#C[C@H]3O)C(=O)c1cc2c(cc1C4=O)CNC2 [Compound 97, Isoindoline-uncialamycin 97] | – | – | – | – | extremely unstable | – |
| CNCc1ccc2c(c1)C(=O)c1c(O)cc3c(c1C2=O)N[C@H]1C#C/C=C\C#C[C@@H](O)[C@@]32O[C@@]12[C@@H](C)O [Compound 108, N-methyl-8-aminomethyl-uncialamycin 108] | – | – | – | – | extremely unstable | – |
| C=CCOC(=O)N1c2c(cc(O)c3c2C(=O)c2ccc(CN)cc2C3=O)[C@@]23O[C@@]2([C@@H](C)O[Si](CC)(CC)CC)[C@@H]1C#C/C=C\C#C[C@H]3O [Compound 111] | – | – | – | – | much more stable than 48aa | – |
| CC(C)[C@H](NC(=O)CCCCCN1C(=O)C=CC1=O)C(=O)N[C@@H](CCCNC(N)=O)C(=O)Nc1ccc(COC(=O)NCc2ccc3c(c2)C(=O)c2c(O)cc4c(c2C3=O)N[C@H]2C#C/C=C\C#C[C@@H](O)[C@@]43O[C@@]23[C@@H](C)O)cc1 [Compound 116] | – | – | – | – | – | EC50 (OVCAR3 cell line; OVCAR-3, 72 h): 16 nM; EC50 (H226 cell line; NCI-H226, 72 h): 4.2 nM; EC50 [1]: 3.3 nM; EC50 (N87 cell line): 8.7 nM |
